Test results as given in patent US20250066864A1, “METHODS FOR IDENTIFYING ADAR1 INHIBITORS, AND COMPOSITIONS AND METHODS OF USE IN TREATING CANCER” (The Wistar Institute of Anatomy and Biology, priority 2021, published 2025).

What was measured:
[1] = tested on: HeLa-Nluc-edit cells; experiment: Firefly luciferase (FFL) activity in HeLa-Nluc-edit reporter cells (viability/apoptosis); type: cell-based, human; conditions: FIG. 24C
Description: A HeLa cell line (telomerase positive) permanently transformed with a dual luciferase reporter system (HeLa-Nluc-edit) as described by Fritzell, K. et al (Sensitive ADAR editing reporter in cancer cells enables high-throughput screening of small molecule libraries. Nucleic acids research 47, e22, doi:10.1093/nar/gky1228 (2019), which is incorporated herein by reference) were seeded at a density of 800 cells per well into 384 white plates (PerkinElmer, CulturPlate384, #6007689) in 20 μl of Opti-MEM without phenol red (Thermo Fisher Scientific #11058021) using a multidrop dispenser (Thermo Fisher Scientific) and incubated overnight at 37-C, 5% CO2. The cells were then treated with test compounds (Maybridge HitFinder Diversity Set library) for 72 h prior to luminescence signal detection. Briefly, 10 μl of Steadylite Plus FFL assay system reagents were added and firefly luminescence signal was measured within 10-20 min after the addition using a multiplate reader at 1 s integration time. Firefly luciferase activity was calculated for each well and results for each plate were normalized to a negative (0.1% DMSO) and positive (Doxorubicin 10 microM) control. […]
For the second screen, 10 μl of Steadylite Plus FFL assay system reagents were added and firefly luminescence signal was measured within 10-20 min after the addition using a multiplate reader at 1 s integration time. […]

[2] = target: T1, ADAR (Homo sapiens, UniProt P55265); conditions: cited from earlier work
T1 sequence (P55265 1-1226): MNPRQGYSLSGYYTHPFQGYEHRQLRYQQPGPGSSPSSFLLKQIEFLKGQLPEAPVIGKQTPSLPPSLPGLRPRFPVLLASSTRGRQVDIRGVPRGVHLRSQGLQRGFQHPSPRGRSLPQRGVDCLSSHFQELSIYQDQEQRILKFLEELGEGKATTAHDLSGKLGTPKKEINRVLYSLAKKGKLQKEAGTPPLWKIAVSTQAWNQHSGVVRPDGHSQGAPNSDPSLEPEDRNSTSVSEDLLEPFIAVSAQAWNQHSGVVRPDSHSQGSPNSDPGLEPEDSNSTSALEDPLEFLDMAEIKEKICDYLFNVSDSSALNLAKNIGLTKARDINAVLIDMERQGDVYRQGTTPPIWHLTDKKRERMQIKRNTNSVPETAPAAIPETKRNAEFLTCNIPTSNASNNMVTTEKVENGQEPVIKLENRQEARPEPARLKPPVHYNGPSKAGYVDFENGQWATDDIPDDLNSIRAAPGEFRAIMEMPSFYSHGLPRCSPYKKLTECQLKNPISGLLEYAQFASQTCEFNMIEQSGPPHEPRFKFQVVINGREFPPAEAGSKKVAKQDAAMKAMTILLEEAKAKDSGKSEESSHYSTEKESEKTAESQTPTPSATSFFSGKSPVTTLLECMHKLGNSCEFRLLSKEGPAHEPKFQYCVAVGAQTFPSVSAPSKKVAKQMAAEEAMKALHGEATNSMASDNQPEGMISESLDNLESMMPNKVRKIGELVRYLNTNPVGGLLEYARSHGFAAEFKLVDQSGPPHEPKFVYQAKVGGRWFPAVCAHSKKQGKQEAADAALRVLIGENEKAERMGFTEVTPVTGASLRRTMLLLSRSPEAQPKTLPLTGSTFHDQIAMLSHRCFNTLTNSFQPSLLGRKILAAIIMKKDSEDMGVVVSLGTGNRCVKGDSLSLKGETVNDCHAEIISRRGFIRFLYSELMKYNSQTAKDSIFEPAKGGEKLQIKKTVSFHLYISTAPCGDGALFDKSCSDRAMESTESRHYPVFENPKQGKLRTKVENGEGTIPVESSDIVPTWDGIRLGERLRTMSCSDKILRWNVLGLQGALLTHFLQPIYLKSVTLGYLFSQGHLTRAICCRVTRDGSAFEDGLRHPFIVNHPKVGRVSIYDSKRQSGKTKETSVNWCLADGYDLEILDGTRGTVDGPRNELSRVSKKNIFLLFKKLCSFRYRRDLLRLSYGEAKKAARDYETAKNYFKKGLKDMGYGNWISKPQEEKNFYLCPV

COc1cccc2c1C(=O)c1c(O)c3c(c(O)c1C2=O)C[C@@](O)(C(=O)CO)C[C@@H]3O[C@H]1C[C@H](N)[C@H](O)[C@H](C)O1 [Doxorubicin]
apoptosis detected by reduction of the FFL activity [1]: induces acute apoptosis

Nc1ncnc2c1nnn2[C@@H]1O[C@H](CO)[C@@H](O)[C@H]1O [8-azaadenosine]
ADAR inhibition [2]: not ADAR inhibitors

Nc1ncnc2c1nc(Cl)n2[C@@H]1O[C@H](CO)[C@@H](O)[C@H]1O [8-chloroadenosine]
ADAR inhibition [2]: not ADAR inhibitors
